Like-named read-outs stand apart in the source and are kept apart here. Marks after values point to notes of the source that are not given here. One block for each compound: values may come before it.
Key:
HCT116 cells = tested on: HCT116 cells; parameters: method as in PMID 22415236; details: previously determined; read-out: in vitro GI50; cited from earlier work
[1] = tested on: phospho-p44/42 MAPK (Thr202/Tyr204) (ERK1/2); assay: PD Western blot of HCT116 tumour lysates: ERK1/2 phosphorylation; type: in vivo, mice
Procedure: (§1) Blood was collected into heparinised tubes, and plasma was separated and stored at −20°C until analysed. Tumours were removed, snap frozen in liquid nitrogen and stored at −80°C prior to PK and PD analyses, as described below.
For PD analyses, tumours (2 to 4∼2.5 mm^3 pieces) were disaggregated in 1 ml PhosphoSafe™ extraction reagent (Merck Chemicals Ltd, Nottingham, Nottinghamshire, UK) containing a protease inhibitor cocktail (Pierce, Thermo Scientific, Rockford, Illinois, USA) at the manufacturer's recommended dilution using a Medimachine™ (BD Biosciences, Oxford, UK), centrifuged, and the supernatant removed and analysed by Western blotting. Proteins were resolved on Novex® 4–12% (w/w) Tris-glycine gels (Invitrogen Ltd, Renfrew, Paisley, UK) and electrotransferred onto Hybond C nitrocellulose membrane (GE Healthcare Life Sciences, Hatfield, Hertfordshire, UK). Membranes were incubated with phospho-4EBP1 (Thr37/46) (#2855), phospho-p44/42 MAPK (Thr202/Tyr204) (#4370), phospho-Akt (Ser473) (#4060) or phospho-S6 ribosomal protein (Ser235/236) (#4858) monoclonal antibodies obtained from Cell Signalling Technology (New England BioLabs (UK) Ltd, Hitchin, Hertfordshire, UK). Antibody binding was detected by incubation with a HRP-conjugated goat anti-rabbit polyclonal antibody (Dako, Glastrop, Denmark). Blots were developed using Pierce ECL (enhanced chemiluminescence) western blotting substrate (Thermo Scientific, Rockford, Illinois, USA), or SuperSignal® West Dura extended duration substrate (Thermo Scientific, Rockford, Illinois, USA), and Kodak X-ray film (Genetic Research Instrumentation Ltd, Braintree, Essex, UK) on a MediPhot 937 film developer (Colenta, Weiner Neustadt, Austria), then digitally scanned.

phospho-4EBP1 (Thr37/46) = assay: PD Western blot of HCT116 tumour lysates: 4EBP1 phosphorylation; type: in vivo, mice; details: 0.25–24 hours after single p.o. dose; 1 mg/kg PD 0325901, 100 mg/kg GDC-0941 or combination (combination compared to single agent PI3K inhibitor)
[2] = tested on: HT29 human tumour xenografts; assay: Anti-tumour activity (time to RTV3/RTV4) in HT29 human tumour xenografts; type: in vivo, mice; details: 1 mg/kg PD 0325901, 100 mg/kg GDC-0941, alone or in combination, p.o. once daily for 14 days
Procedure: (§2) Animal studies were all carried out using female athymic CD1 nude mice (Charles River, Kent, UK), implanted with HCT116 or HT29 xenografts (1×10^7 cells in 50 µl media injected subcutaneously into the right flank), maintained and handled in isolators under specific pathogen-free conditions.

[3] = tested on: phospho-S6 ribosomal protein (Ser235/236); assay: PD Western blot of HCT116 tumour lysates: S6 phosphorylation; type: in vivo, mice; details: 0.25–24 hours after single p.o. dose; 1 mg/kg PD 0325901, 100 mg/kg GDC-0941 or combination (combination compared to single agent PI3K inhibitor)
phospho-Akt (Ser473) = assay: PD Western blot of HCT116 tumour lysates: AKT phosphorylation; type: in vivo, mice; details: 0.25–24 hours after single p.o. dose; 1 mg/kg PD 0325901, 100 mg/kg GDC-0941 or combination (combination compared to single agent PI3K inhibitor)
Procedure: as §1
For PD analyses, tumours (2 to 4∼2.5 mm^3 pieces) were disaggregated in 1 ml PhosphoSafe™ extraction reagent (Merck Chemicals Ltd, Nottingham, Nottinghamshire, UK) containing a protease inhibitor cocktail (Pierce, Thermo Scientific, Rockford, Illinois, USA) at the manufacturer's recommended dilution using a Medimachine™ (BD Biosciences, Oxford, UK), centrifuged, and the supernatant removed and analysed by Western blotting. […] Antibody binding was detected by incubation with a HRP-conjugated goat anti-rabbit polyclonal antibody (Dako, Glastrop, Denmark).

[4] = tested on: HCT116 human tumour xenografts; assay: Anti-tumour activity (time to RTV3/RTV4) in HCT116 human tumour xenografts; type: in vivo, mice; details: 1 mg/kg PD 0325901, 100 mg/kg GDC-0941, alone or in combination, p.o. once daily for 14 days
Procedure: as §2

[5] = tested on: HCT116 human tumour xenografts; assay: [18F]-FLT PET tumour uptake in HCT116 xenografts; type: in vivo, mice; details: 1 mg/kg PD 0325901, 100 mg/kg GDC-0941, alone or in combination, p.o. once daily for 2 days
Procedure: Before treatment and after 2 days of treatment as described above, mice bearing HCT116 human tumour xenografts (7–9 mice/group) were anaesthetised, cannulated via their tail vein and placed in the prone position on a custom-made heated bed, which held three mice at once, within a MOSAIC PET scanner (Philips, Eindhoven, NL). [^18F]-FLT was obtained from PETNET (PETNET, Nottingham, UK), and radioactivity levels were measured using a Capintec well counter (Capintec, NJ, USA). Approximately 10 MBq of [^18F]-FLT was administered intravenously and a 1 hour dynamic PET scan was performed, consisting of ten 1 minute, six 5 minute and two 10 minute time frames. Mice were recovered after scanning and continued to receive treatment for the remainder of the study. Data were analysed using Imalytics software (Philips, Aachen, Germany); a 3D region of interest was drawn around the tumour and the standardised uptake value (SUV) was calculated by dividing the tissue concentration (MBq/ml) by the injected dose (MBq)/g body weight. Mean SUV values were then plotted against time, and the area under the curve (AUC) and the percentage change in the area under the curve relative to the baseline scan was calculated.

[6] = Single dose PK: plasma and tumour tissue drug concentrations by HPLC in HCT116 xenograft-bearing mice; type: in vivo; details: for AUC: po; for AUC / GDC-0941 AUC Tumour / PD 0325901 AUC Tumour: over 24 hours, mean ± SD
Procedure: as §1
For PK analyses, drug was extracted from 60 µl aliquots of samples by protein precipitation with 9 volumes of acetonitrile (MeCN). Samples were centrifuged at 3000g for 5 minutes at 4°C, and 500 µl of the supernatant evaporated to dryness under nitrogen gas at 30°C using a Zymark Evaporator (Caliper Life Sciences Limited, Cheshire, UK). Samples were reconstituted in 100 µl HPLC mobile phase consisting of 40% acetonitrile and 60% (v/v) 0.1% formic acid pH 4.0 (v/v), and 50 µl of the supernatant applied to a 10 cm Xterra Waters 186000436 C18 3.5 µm column (Waters, Hertfordshire, UK) fitted with an in line filter. Compounds were eluted with the above mobile phase at 1 ml/min using a Waters Millennium Chromatography system (Waters, Hertfordshire, UK). Analytes were detected by UV absorbance at 275 and 315 nm, at retention times of 6.8–7.3 and 3.9–4.3 minutes for PD 0325901 and GDC-0941, respectively. For analysis of drug in tumour tissue, tumours were homogenised in 3 volumes of PBS (w/v) and 50 µl aliquots extracted with 9 volumes of MeCN, and centrifuged, evaporated and analysed as described above.

[7] = parameters: method as in PMID 18754654, PMID 21838594; details: in mice; cited from earlier work
[8] = rat, in vivo, 100 mg/kg; cited from earlier work
[9] = parameters: method as in PMID 20332327; details: single agent; such as retinal vein occlusion; cited from earlier work
[10] = cited from earlier work
[11] = single p.o. dose 10 mg/kg PD 0325901+10 mg/kg GDC-0941

increase in plasma AUC with 10-fold increment in dose ([6]; GDC-0941 100 versus 10 mg/kg): 7 fold | increase in tumour AUC following a 10-fold increase in dose ([6]; GDC-0941 100 versus 10 mg/kg): 15 fold | AUC ([6]; mouse, plasma, 10 mg/kg, single p.o. dose 10 mg/kg GDC-0941 alone, read-out: GDC-0941 AUC Plasma (converted)): 5.4 µM·h | AUC ([6]; mouse, plasma, 10 mg/kg, single p.o. dose 10 mg/kg PD 0325901+10 mg/kg GDC-0941, read-out: GDC-0941 AUC Plasma (converted)): 6.33 µM·h | AUC ([6]; mouse, plasma, 100 mg/kg, single p.o. dose 100 mg/kg GDC-0941 alone, read-out: GDC-0941 AUC Plasma (converted)): 39.4 µM·h | AUC ([6]; mouse, plasma, single p.o. dose 1 mg/kg PD 0325901+10 mg/kg GDC-0941, read-out: GDC-0941 AUC Plasma (converted)): 6.55 µM·h | AUC ([6]; mouse, plasma, single p.o. dose 1 mg/kg PD 0325901+100 mg/kg GDC-0941, read-out: GDC-0941 AUC Plasma (converted)): 22.6 µM·h | AUC ([6]; mouse, plasma, single p.o. dose 10 mg/kg PD 0325901+100 mg/kg GDC-0941, read-out: GDC-0941 AUC Plasma (converted)): 58.8 µM·h | GDC-0941 AUC Tumour ([6]; single p.o. dose 1 mg/kg PD 0325901+10 mg/kg GDC-0941): 396±144^j µM.min | GDC-0941 AUC Tumour ([6]; single p.o. dose 1 mg/kg PD 0325901+100 mg/kg GDC-0941): 3196±183^h µM.min | GDC-0941 AUC Tumour ([6]; single p.o. dose 10 mg/kg GDC-0941 alone): 364±130^g µM.min | GDC-0941 AUC Tumour [6, 11]: 124±51^g,j µM.min | GDC-0941 AUC Tumour ([6]; single p.o. dose 10 mg/kg PD 0325901+100 mg/kg GDC-0941): 2649±861^i µM.min | GDC-0941 AUC Tumour ([6]; single p.o. dose 100 mg/kg GDC-0941 alone): 5422±962^h,i µM.min
SMILES: CS(=O)(=O)N1CCN(Cc2cc3nc(-c4cccc5[nH]ncc45)nc(N4CCOCC4)c3s2)CC1 [GDC-0941, 2-(1H-Indazol-4-yl)-6-(4-methanesulfonyl-piperazin-1-ylmethyl)-4-morpholin-4-yl-thieno[3,2-d]pyrimidine]
GI50 (HCT116 cells): 1080 nM | phosphorylation of ERK1/2 in tumour ([1]; 0.25–24 hours after single p.o. dose, 100 mg/kg GDC-0941 alone or with 1 mg/kg PD 0325901 (combination compared to single agent MEK inhibitor)): reduction | phosphorylation of 4EBP1 in tumour (phospho-4EBP1 (Thr37/46)): reduction | Time to RTV3, Mean ± SD [2]: 11 ± 9 days | Time to RTV3, Median ± IR [2]: 10 ± 6 days | Time to RTV4, Mean ± SD [2]: 13 ± 9 days | Time to RTV4, Median ± IR [2]: 10 ± 5 days | phosphorylation of S6 in tumour [3]: reduction | phosphorylation of AKT in tumour (phospho-Akt (Ser473)): reduction | Time to RTV3, Mean ± SD [4]: 15 ± 4 days | Time to RTV3, Median ± IR [4]: 16 ± 5 days | Time to RTV4, Mean ± SD [4]: 19 ± 5 days | Time to RTV4, Median ± IR [4]: 18 ± 4 days | decrease in tumour [18F]-FLT uptake (SUV AUC) after 2 days versus baseline [5]: no significant difference | oral bioavailability [7]: 78%

SMILES: O=C(NOC[C@H](O)CO)c1ccc(F)c(F)c1Nc1ccc(I)cc1F [PD 0325901]
GI50 (HCT116 cells): 21 nM | toxicity of oral and i.v. doses [8]: non-toxic | toxicity in clinical trials [9]: ocular and neurological toxicity | phosphorylation of ERK1/2 in tumour ([1]; 3 and 6 hours after single p.o. dose of 1 mg/kg PD 0325901): completely ablate | phosphorylation of ERK1/2 in tumour ([1]; 1 hour after single p.o. dose of 1 mg/kg PD 0325901): reduce | phosphorylation of 4EBP1 in tumour (phospho-4EBP1 (Thr37/46)): no marked effect | Time to RTV3, Mean ± SD [2]: 10 ± 4 days | Time to RTV3, Median ± IR [2]: 10 ± 4 days | Time to RTV4, Mean ± SD [2]: 11 ± 4 days | Time to RTV4, Median ± IR [2]: 11 ± 3 days | phosphorylation of S6 in tumour [3]: no marked effect | phosphorylation of AKT in tumour (phospho-Akt (Ser473)): no marked effect | Time to RTV3, Mean ± SD [4]: 19 ± 7 days | Time to RTV3, Median ± IR [4]: 18 ± 12 days | Time to RTV4, Mean ± SD [4]: 23 ± 8 days | Time to RTV4, Median ± IR [4]: 21 ± 11 days | decrease in tumour [18F]-FLT uptake (SUV AUC) after 2 days versus baseline [5]: no significant difference | increase in plasma AUC of PD 0325901 following concomitant dosing with GDC-0941 ([6]; 1 or 10 mg/kg PD 0325901 alone versus with GDC-0941): 2–3 fold | increase in plasma AUC with 10-fold increment in dose ([6]; PD 0325901 10 versus 1 mg/kg): 15 fold | tumour tissue level (undetectable, limit of detection) ([6]; all time points after 1 mg/kg PD 0325901, per g of tumour material): < 0.4 nmol/g | concentration at 24 h ([6]; mouse, plasma, oral, at 24 hours after 1 mg/kg PD 0325901, read-out: plasma level (undetectable, limit of detection)): < 100 nM | AUC ([6]; mouse, plasma, 1 mg/kg, single p.o. dose 1 mg/kg PD 0325901 alone, read-out: PD 0325901 AUC Plasma (converted)): 1.38 µM·h | AUC ([6]; mouse, plasma, 10 mg/kg, single p.o. dose 10 mg/kg PD 0325901+10 mg/kg GDC-0941, read-out: PD 0325901 AUC Plasma (converted)): 40 µM·h | AUC ([6]; mouse, plasma, 10 mg/kg, single p.o. dose 10 mg/kg PD 0325901 alone, read-out: PD 0325901 AUC Plasma (converted)): 21.6 µM·h | AUC ([6]; mouse, plasma, single p.o. dose 1 mg/kg PD 0325901+10 mg/kg GDC-0941, read-out: PD 0325901 AUC Plasma (converted)): 2.73 µM·h | AUC ([6]; mouse, plasma, single p.o. dose 1 mg/kg PD 0325901+100 mg/kg GDC-0941, read-out: PD 0325901 AUC Plasma (converted)): 3.15 µM·h | AUC ([6]; mouse, plasma, single p.o. dose 10 mg/kg PD 0325901+100 mg/kg GDC-0941, read-out: PD 0325901 AUC Plasma (converted)): 54.1 µM·h | PD 0325901 AUC Tumour [6, 11]: 399±72^d,f µM.min | PD 0325901 AUC Tumour ([6]; single p.o. dose 10 mg/kg PD 0325901 alone): 1082±232^d,e µM.min | maximum tolerated dose [10]: 25 mg/kg
